Experimental data taken from US20080293712A1, “Benzo[C][2,7]Naphtyridine Derivatives, Methods of Making Thereof and Methods of Use Thereof” (WYETH, priority 2007, published 2008).

Legend:
Format in all cases: biochemical
S6K = S6K (Homo sapiens, UniProt P23443); assay: S6K kinase inhibition, Z'-LYTE FRET assay; conditions: 100 μM ATP
Excerpt: The ability of illustrative Benzo[c][2,7]naphthyridine Derivatives to inhibit PKA, Akt1, S6K in vitro can be determined using a Fluorescence Resonance Energy Transfer (FRET) assay, such as a Z′-LYTE™ Kinase Assay Platform, commercially available from Invitrogen (c.f. Rodems et al., ASSAY Drug Devel. Technol. 1:9-19 (2002) and Zhang et al., J. Biomol. Screen. 4:67-73 (1999)). Z′-Lyte™ assay is an in vitro FRET-based assay that utilizes differential sensitivity of phosphorylated and non-phosphorylated peptides to proteolytic cleavage. The peptide substrate (also available from Invitrogen for each of PKA, Akt1 and S6K) is labeled with two different fluorophores, a fluorescence donor at one end of the peptide and a fluorescence acceptor at the other end of the peptide. In the primary kinase reaction, the kinase phosphorylates the peptide substrate in the presence of ATP. In the secondary reaction, a site-specific protease recognizes and cleaves non-phosphorylated peptides, but not phosphorylated peptides. Cleavage disrupts FRET between the donor and acceptor fluorophores on the peptide, whereas uncleaved phosphorylated peptides maintain FRET. Based on a formula that uses the ratio of donor emission (at 460 nm) to acceptor emission (at […]) after excitation of the donor fluorophore at 400 nm, the extent of phosphorylation of the peptide substrates is calculated. IC50 values of illustrative Benzo[c][2,7]naphthyridine Derivatives, shown in Table 12, are calculated using LSW Data Analysis package add-in for Excel (Microsoft).

PDK-1 = target: T1, PDK-1 (Homo sapiens, UniProt O15530); assay: PDK-1 kinase inhibition ELISA assay (phosphorylation of His6-tagged SGK1 S422D by PDK-1); conditions: PDK-1 ELISA, Table 11; read-out: Average IC50
T1 sequence (O15530 1-556): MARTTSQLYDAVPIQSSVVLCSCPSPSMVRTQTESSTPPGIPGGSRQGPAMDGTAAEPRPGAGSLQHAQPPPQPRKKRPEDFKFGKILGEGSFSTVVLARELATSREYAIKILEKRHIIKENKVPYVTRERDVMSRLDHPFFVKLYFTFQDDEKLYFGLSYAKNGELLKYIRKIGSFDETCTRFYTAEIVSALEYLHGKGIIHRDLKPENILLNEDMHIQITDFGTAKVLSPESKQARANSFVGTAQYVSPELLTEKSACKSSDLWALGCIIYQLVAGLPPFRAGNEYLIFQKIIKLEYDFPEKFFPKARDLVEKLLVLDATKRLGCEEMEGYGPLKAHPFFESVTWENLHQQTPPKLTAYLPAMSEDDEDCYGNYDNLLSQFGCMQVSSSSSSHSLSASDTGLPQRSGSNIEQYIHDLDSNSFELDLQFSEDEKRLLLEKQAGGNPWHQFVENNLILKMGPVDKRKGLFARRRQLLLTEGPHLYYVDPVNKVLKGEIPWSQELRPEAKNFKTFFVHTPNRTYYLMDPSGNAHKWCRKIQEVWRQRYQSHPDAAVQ

PKA = PKA (Homo sapiens, UniProt P17612); assay: PKA kinase inhibition, Z'-LYTE FRET assay
Akt1 = Akt1 (Homo sapiens, UniProt P31749); assay: Akt1 kinase inhibition, Z'-LYTE FRET assay; conditions: 100 μM ATP
Method in brief: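 Z'-LYTE FRET format: kinase phosphorylates fluorophore-labelled peptide with ATP, then protease cleaves only non-phosphorylated peptide. Phosphorylation calculated from donor (460 nm)/acceptor (535 nm) emission ratio after 400 nm excitation; IC50 values derived.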

[1] = target: T2, human PKCθ full length enzyme (Homo sapiens, UniProt Q04759); assay: PKCθ kinase inhibition, IMAP fluorescence polarization assay; conditions: 6 μM ATP
T2 construct: human PKCθ full length enzyme; purchased Panvera, Madison, Wis., now Invitrogen, Carlsbad, Calif; P2996
Excerpt: The ability of illustrative Benzo[c][2,7]naphthyridine Derivatives to inhibit PKCθ can be determined using an IMAP Assay (Molecular Devices Corporation, Sunnyvale, Calif.). The materials used include the following: human PKCθ full length enzyme (Panvera, Madison, Wis., now Invitrogen, Carlsbad, Calif., Cat. No. P2996); substrate peptide: 5FAM-[…]-OH (Molecular Devices, Cat. No. RP7032); ATP (Sigma-Aldrich, St. Louis, Mo., Sigma Cat. No. A2383); DTT (e.g., Pierce, now Fisher Scientific, Waltham, Mass., Pierce Cat. No. 20291); 5× kinase reaction buffer (Molecular Devices, Cat. No. R7209); 5× binding buffer A (Molecular Devices, Cat. No. R7282), 5× binding buffer B (Molecular Devices, Cat. No. R7209); IMAP Beads (Molecular Devices, Cat. No. R7284); and 384-well plates (Corning Costar, Acton, Mass., Cat. No. 3710). The reaction buffer is prepared by diluting the 5× stock reaction buffer and adding DTT to obtain a concentration of 3.0 mM. The binding buffer is prepared by diluting the 5× binding buffer A. A master mix solution is prepared using a 90% dilution of the reaction buffer containing 2×ATP (12 μM) and 2× peptide (200 nM). […] The final concentration of compound is 2× and 10% DMSO. DMSO is added to the rest of the master mix to increase the concentration to 10%. 10 μl of the master mix containing 10% DMSO is added to the rest of the wells on the plate except the 2nd column. 20 μl is transferred from the first column to the 2nd column. The compounds are serially diluted in 2:1 ratio starting from the 2nd column. A 2× (2 nM) PKCθ solution is made in the reaction buffer. 10 μl of the PKCθ solution is added to every well to achieve these final concentrations: PKCθ—1 nM; ATP—6 μM; peptide—100 nM; DMSO—5%. Samples are incubated for 25 minutes at room temperature. The binding reagent is prepared by diluting the beads in 1× binding buffer to 800:1. 50 μl of the binding reagent is added to every well and incubated for 20 minutes. Fluorescence polarization is measured using EnVision™ 2100 multilabel reader (PerkinElmer Life Sciences, Wellesley, Mass.). Wells with no ATPs and wells with no enzymes are used as controls.

Akt1, sequence (P31749 whole entry, species assumed): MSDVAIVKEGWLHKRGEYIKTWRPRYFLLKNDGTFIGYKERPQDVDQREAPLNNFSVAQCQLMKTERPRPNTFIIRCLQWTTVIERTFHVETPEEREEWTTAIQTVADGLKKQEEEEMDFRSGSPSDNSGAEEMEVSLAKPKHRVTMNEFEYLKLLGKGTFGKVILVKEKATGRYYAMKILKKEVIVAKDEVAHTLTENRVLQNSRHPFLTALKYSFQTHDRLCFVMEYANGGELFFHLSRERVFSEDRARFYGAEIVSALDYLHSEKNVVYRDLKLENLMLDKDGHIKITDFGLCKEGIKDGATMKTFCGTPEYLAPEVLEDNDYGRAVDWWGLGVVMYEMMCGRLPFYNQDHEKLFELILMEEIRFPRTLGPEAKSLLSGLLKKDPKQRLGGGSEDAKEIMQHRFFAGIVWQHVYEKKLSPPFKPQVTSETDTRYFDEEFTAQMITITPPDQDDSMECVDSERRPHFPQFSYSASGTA
S6K, sequence (P23443 whole entry): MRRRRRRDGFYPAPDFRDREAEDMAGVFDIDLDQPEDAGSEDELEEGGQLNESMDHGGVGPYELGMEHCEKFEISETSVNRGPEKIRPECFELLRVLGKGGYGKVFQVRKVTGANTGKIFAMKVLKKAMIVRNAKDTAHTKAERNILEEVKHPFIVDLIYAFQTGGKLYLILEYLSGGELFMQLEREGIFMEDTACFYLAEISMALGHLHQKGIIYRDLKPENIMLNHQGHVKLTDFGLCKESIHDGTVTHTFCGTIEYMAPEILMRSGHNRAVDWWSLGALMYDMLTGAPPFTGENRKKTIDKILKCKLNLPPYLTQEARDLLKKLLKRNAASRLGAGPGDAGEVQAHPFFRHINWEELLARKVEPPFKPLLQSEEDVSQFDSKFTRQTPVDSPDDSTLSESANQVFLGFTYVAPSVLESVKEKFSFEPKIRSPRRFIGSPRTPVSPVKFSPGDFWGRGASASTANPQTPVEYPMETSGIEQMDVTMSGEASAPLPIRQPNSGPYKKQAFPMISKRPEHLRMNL
T2 sequence (Q04759 whole entry): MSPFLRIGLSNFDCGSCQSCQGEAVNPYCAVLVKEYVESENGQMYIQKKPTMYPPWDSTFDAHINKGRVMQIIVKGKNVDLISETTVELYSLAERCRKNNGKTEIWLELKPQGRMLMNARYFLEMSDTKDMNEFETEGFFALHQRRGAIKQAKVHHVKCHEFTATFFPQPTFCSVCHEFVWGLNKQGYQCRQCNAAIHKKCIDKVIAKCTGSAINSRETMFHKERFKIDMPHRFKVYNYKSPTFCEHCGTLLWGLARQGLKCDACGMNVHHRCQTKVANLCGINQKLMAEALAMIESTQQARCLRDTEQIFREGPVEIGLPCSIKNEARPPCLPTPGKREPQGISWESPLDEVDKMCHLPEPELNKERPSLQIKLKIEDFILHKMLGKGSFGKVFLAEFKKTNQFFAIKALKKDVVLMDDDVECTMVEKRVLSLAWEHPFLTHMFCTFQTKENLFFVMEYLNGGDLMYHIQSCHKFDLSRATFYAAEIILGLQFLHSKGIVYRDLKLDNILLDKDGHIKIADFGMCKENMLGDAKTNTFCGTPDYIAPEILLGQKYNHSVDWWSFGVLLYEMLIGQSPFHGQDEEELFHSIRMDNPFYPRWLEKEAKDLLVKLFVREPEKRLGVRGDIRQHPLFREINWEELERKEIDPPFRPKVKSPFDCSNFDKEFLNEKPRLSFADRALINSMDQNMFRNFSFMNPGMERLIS

IC50 (S6K) [nM] | IC50 (PDK-1) [nM] | IC50 (PKA; 20 μM ATP) [nM] | IC50 (PKA; 100 μM ATP) [nM] | IC50 (Akt1) [nM] | IC50 [1] [nM] | SMILES
1090 | 46 | – | > 2000 | 360 | 135 | CCOc1cc2ncc3c(N)nc(-n4ccnc4)cc3c2cc1N [Ia-28, 8-Ethoxy-2-(1H-imidazol-1-yl)benzo[c]-2,7-naphthyridine-4,9-diamine]
656 | 79 | > 10000 | > 2000 | 70 | 121 | COc1cc2c(cc1OCCN1CCOCC1)ncc1c(N)nc(-n3ccnc3)cc12 [Ia-13, 2-(1H-imidazol-1-yl)-9-methoxy-8-(2-morpholinoethoxy)benzo[c][2,7]naphthyridin-4-amine]
1380 | – | > 20000 | > 2000 | 200 | 116 | COCCOc1cc2ncc3c(N)nc(-n4ccnc4)cc3c2cc1OC [Ia-48, 2-(1H-imidazol-1-yl)-9-methoxy-8-(2-methoxyethoxy)benzo[c]-2,7-naphthyridin-4-amine]
1560 | 65 | > 20000 | > 2000 | 300 | – | COc1cc2c(cc1OCCCl)ncc1c(N)nc(-n3ccnc3)cc12 [Ia-21, 8-(2-chloroethoxy)-2-(1H-imidazol-1-yl)-9-methoxybenzo[c][2,7]naphthyridin-4-amine]
> 2000 | 57 | > 20000 | > 2000 | 300 | 332 | COc1cc2ncc3c(N)nc(-c4cncc(O)c4)cc3c2cc1OC [Ib-57, 5-(4-Amino-8,9-dimethoxybenzo[c]-2,7-naphthyridin-2-yl)pyridin-3-ol]
– | 508 | > 10000 | – | 225 | 255 | COc1cc2c(cc1OCCN1CCCC1)ncc1c(N)nc(-n3ccnc3)cc12 [Ia-12, 2-(1H-imidazol-1-yl)-9-methoxy-8-(2-pyrrolidin-1-ylethoxy)benzo[c]-2,7-naphthyridin-4-amine]

More lines, now with the values behind:

SMILES | IC50 (S6K) [nM] | IC50 (PDK-1) [nM] | IC50 (PKA; 20 μM ATP) [nM] | IC50 (PKA; 100 μM ATP) [nM] | IC50 (Akt1) [nM] | IC50 [1] [nM]
COc1cc2ncc3c(N)nc(-c4cncc(O[C@@H]5CCNC5)c4)cc3c2cc1OC [Ib-58, 8,9-dimethoxy-2-{5-[(3R)-pyrrolidin-3-yloxy]pyridin-3-yl}benzo[c]-2,7-naphthyridin-4-amine] | 355 | 66 | 140 | 1530 | 60 | 249
COc1cc2ncc3c(N)nc(-c4cncc(OC[C@@H](N)Cc5ccccc5)c4)cc3c2cc1OC [Ib-62, 2-(5-{[(2S)-2-amino-3-phenylpropyl]oxy}pyridin-3-yl)-8,9-dimethoxybenzo[c]-2,7-naphthyridin-4-amine] | 98 to 140 | 10 | 23 | 146 to 497 | < 160 | 29
COc1cc2ncc3c(N)nc(-c4cncc(OC[C@H](N)Cc5c[nH]c6ccccc56)c4)cc3c2cc1OC [Ib-55, 2-(5-{[(2R)-2-amino-3-(1H-indol-3-yl)propyl]oxy}pyridin-3-yl)-8,9-dimethoxybenzo[c]-2,7-naphthyridin-4-amine] | 254 | 15 | < 80 | 1320 | 18 | 3
CCSc1cc2ncc3c(N)nc(-c4cncc(OC[C@@H](N)Cc5ccccc5)c4)cc3c2cc1OC [Ia-40, 2-(5-{[(2S)-2-amino-3-phenylpropyl]oxy}pyridin-3-yl)-8-(ethylthio)-9-methoxybenzo[c]-2,7-naphthyridin-4-amine] | – | 44.5 | > 20000 | – | 1000 | 525
COc1cc2ncc3c(N)nc(-c4cncc(OC[C@H](N)Cc5ccccc5)c4)cc3c2cc1OC [Ib-56, 2-(5-{[(2R)-2-amino-3-phenylpropyl]oxy}pyridin-3-yl)-8,9-dimethoxybenzo[c]-2,7-naphthyridin-4-amine] | 88 | – | < 160 | 259 | 3 | 4
COc1cc2ncc3c(N)nc(-c4cncc(O[C@H]5CCNC5)c4)cc3c2cc1OC [Ib-59, 8,9-dimethoxy-2-{5-[(3S)-pyrrolidin-3-yloxy]pyridin-3-yl}benzo[c]-2,7-naphthyridin-4-amine] | 1240 | 64 | 2000 | > 2000 | 290 | 592
COc1cc2ncc3c(N)nc(-c4cncc(OC[C@@H](N)Cc5ccccc5Cl)c4)cc3c2cc1OC [Ib-52, 2-(5-{[(2S)-2-amino-3-(2-chlorophenyl)propyl]oxy}pyridin-3-yl)-8,9-dimethoxybenzo[c]-2,7-naphthyridin-4-amine] | 106 | 8 | 45 | 793 | 6.4 | –
COCCOc1cc2ncc3c(N)nc(-c4cncc(OC[C@@H](N)Cc5ccccc5)c4)cc3c2cc1OC [Ia-11, 2-(5-{[(2S)-2-amino-3-phenylpropyl]oxy}pyridin-3-yl)-9-methoxy-8-(2-methoxyethoxy)benzo[c]-2,7-naphthyridin-4-amine] | 34 | 12 | 38 | 390 | 1 | 17
COc1cc2ncc3c(N)nc(-c4cncc(OC[C@H](N)CN5Cc6ccccc6C5)c4)cc3c2cc1OC [Ib-48, 2-(5-{[(2R)-2-amino-3-(1,3-dihydro-2H-isoindol-2-yl)propyl]oxy}pyridin-3-yl)-8,9-dimethoxybenzo[c]-2,7-naphthyridin-4-amine] | 405 | 34 | 2700 | > 2000 | 400 | –
